ChEMBL document CHEMBL1201862, “PubChem BioAssay data set” (2004)
Calls of active or inactive are those of the source.

Columns and labels:
[1] = molecular target: T1, Kappa-type opioid receptor (Homo sapiens, UniProt P41145); experiment: SAR analysis of small molecule agonists of the kappa opioid receptor via a luminescent beta-arrestin assay - Set 3. [Related pubchem assays (depositor defined):AID1777, AID1785, AID1786, AID1966, AID2133, AID2136, AID2284, AID2500]; type: functional
[2] = molecular target: Delta-type opioid receptor (Homo sapiens, UniProt P41143); experiment: SAR Analysis of Agonists of the DOR Receptor using an Image-Based Assay - Set 3. [Related pubchem assays (depositor defined):AID1777, AID1786]; type: functional
Chain of Delta-type opioid receptor (P41143 whole entry): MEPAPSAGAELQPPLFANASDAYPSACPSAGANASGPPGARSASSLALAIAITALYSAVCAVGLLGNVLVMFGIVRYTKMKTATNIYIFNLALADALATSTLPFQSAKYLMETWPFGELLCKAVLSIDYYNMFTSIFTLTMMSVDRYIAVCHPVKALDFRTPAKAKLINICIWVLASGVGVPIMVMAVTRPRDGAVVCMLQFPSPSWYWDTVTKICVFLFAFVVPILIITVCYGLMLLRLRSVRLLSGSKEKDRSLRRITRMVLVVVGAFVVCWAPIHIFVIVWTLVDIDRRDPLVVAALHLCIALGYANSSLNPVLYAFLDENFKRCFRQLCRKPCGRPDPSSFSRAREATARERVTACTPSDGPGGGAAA

[3] = molecular target: T1, Kappa-type opioid receptor; experiment: KOR agonist analogs, arrestin-GFP redistribution, SAR follow-up, imaging, image-based, set 3 (AID 488833); type: functional
Mu-type opioid receptor = Mu-type opioid receptor (Homo sapiens, UniProt P35372); experiment: SAR Analysis of Agonists of the MOR Receptor using an Image-Based Assay - Set 3. [Related pubchem assays (depositor defined):AID1777, AID1785, AID1786, AID1966, AID2133, AID2136, AID2284, AID2285, AID2352]; type: functional
Chain of Mu-type opioid receptor (P35372 whole entry): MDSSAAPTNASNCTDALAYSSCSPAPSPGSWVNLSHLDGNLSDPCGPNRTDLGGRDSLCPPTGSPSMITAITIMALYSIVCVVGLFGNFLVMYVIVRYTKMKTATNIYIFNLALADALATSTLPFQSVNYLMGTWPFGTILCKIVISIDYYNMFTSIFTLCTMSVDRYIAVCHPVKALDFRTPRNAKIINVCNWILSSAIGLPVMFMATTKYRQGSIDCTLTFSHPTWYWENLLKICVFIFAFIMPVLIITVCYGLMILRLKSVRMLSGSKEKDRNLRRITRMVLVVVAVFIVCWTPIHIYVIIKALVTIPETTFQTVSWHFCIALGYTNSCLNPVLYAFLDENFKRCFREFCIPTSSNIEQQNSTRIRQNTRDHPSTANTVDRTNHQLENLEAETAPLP

[4] = test system: Streptococcus sp. 'group A'; experiment: growth inhibition of control SK(-) GAS strain, dose response, counter-screen for streptokinase expression inhibitor project, luminescence, kanamycin, BacTiterGlo, confirmation (AID 1900); type: functional, organism-based
[5] = molecular target: T2, Sphingosine 1-phosphate receptor 4 (Homo sapiens, UniProt O95977); experiment: Fluorescence dose response cell-based high throughput screening assay for agonists of the Sphingosine 1-Phosphate Receptor 4 (S1P4). [Related pubchem assays: 1509 (Primary screen.), 1523 (Confirmation screen in triplicates.)]; type: functional
T2 sequence (O95977 whole entry): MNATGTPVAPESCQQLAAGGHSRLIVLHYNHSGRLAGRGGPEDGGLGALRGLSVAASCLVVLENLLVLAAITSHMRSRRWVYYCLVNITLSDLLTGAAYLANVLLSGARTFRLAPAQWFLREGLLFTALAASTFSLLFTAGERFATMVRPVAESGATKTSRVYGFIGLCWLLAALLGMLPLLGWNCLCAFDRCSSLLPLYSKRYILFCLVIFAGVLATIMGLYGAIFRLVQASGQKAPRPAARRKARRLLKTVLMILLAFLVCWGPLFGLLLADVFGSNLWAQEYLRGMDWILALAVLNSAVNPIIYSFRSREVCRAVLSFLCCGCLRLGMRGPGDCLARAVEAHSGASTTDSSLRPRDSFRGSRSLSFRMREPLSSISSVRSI

[6] = growth suppression of beta-catenin-knockout colon cells, dose response, cell-based, HCT116, human colon tumor (AID 1045); type: functional;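 note: HCT116 colon tumor cells with beta catenin knocked out; cells exposed to compound for 60 hours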
[7] = molecular target: Sphingosine 1-phosphate receptor 2 (Homo sapiens, UniProt O95136); experiment: Dose Response Cell Based Assay for Agonists of the S1P2 Receptor. [Related pubchem assays: 729, 736, 843 ]; type: functional
Chain of Sphingosine 1-phosphate receptor 2 (O95136 whole entry): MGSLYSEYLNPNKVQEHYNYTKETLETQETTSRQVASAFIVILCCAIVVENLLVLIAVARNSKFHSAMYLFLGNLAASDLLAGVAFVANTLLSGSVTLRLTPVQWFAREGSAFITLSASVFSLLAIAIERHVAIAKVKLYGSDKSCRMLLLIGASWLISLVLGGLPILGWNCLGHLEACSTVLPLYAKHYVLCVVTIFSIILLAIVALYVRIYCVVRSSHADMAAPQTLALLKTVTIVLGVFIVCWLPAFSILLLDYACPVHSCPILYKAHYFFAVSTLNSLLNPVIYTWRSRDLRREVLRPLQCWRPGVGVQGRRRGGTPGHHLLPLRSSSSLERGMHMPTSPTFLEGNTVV

[8] = growth suppression of PTEN-null colon cells, dose response, cell-based, HCT116 PTEN knockout (AID 1047); type: functional;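 note: HCT116 colon tumor cells with PTEN knocked out; cells exposed to compound for 60 hours before readout; potency for loss of cell viability measured by luminescence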
[9] = Vero cell cytotoxicity, dose response, cytotoxicity control for Vif-APOBEC3G degradation inhibitor project, Vero cells (AID 1117358); type: functional; details: Human immunodeficiency virus 1, Vero
Streptococcus = experiment: Group A Streptococcus viability loss, dose response, counter-screen for streptokinase expression inhibitor project, luminescence, BacTiterGlo (AID 1915); type: functional, organism-based;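 note: potency for reduction of bacterial viability or growth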
Streptokinase A = molecular target: T3, Streptokinase A (Streptococcus pyogenes serotype M1, UniProt P10520); experiment: S. pyogenes streptokinase expression inhibitors, potency, dose response, plasminogen activation absorbance, OD405 (AID 1914); type: functional, Streptococcus pyogenes M1 GAS;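 note: secreted streptokinase activity via plasminogen activation per viability signal from cell pellet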
T3 sequence (P10520 whole entry): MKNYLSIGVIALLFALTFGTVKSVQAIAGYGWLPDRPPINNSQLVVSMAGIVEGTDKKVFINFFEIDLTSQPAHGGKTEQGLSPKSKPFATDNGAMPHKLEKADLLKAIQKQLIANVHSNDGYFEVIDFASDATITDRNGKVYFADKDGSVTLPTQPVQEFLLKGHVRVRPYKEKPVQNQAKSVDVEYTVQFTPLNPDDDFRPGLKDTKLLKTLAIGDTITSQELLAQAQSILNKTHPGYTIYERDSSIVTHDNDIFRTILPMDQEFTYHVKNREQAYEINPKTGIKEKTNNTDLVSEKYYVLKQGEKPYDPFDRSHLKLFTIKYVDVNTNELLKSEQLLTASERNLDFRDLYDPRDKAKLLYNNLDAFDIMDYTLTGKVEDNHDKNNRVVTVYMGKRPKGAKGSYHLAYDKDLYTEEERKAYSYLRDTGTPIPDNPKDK

Vero = experiment: cells; type: functional; details: Chlorocebus sabaeus
[10] = molecular target: Sphingosine 1-phosphate receptor 1 (Homo sapiens, UniProt P21453); experiment: Fluorescence-based counterscreen assay for S1P4 agonists: Cell-based dose response high throughput screening assay to identify agonists of the Sphingosine 1-Phosphate Receptor 1 (S1P1). [Related pubchem assays (depositor defined):AID1509, AID1523, AID1801, AID463107, AID463118, AID463119, AID463122, AID463123, AID463129, AID463225, AID504400, AID504460]; type: functional
Chain of Sphingosine 1-phosphate receptor 1 (P21453 whole entry): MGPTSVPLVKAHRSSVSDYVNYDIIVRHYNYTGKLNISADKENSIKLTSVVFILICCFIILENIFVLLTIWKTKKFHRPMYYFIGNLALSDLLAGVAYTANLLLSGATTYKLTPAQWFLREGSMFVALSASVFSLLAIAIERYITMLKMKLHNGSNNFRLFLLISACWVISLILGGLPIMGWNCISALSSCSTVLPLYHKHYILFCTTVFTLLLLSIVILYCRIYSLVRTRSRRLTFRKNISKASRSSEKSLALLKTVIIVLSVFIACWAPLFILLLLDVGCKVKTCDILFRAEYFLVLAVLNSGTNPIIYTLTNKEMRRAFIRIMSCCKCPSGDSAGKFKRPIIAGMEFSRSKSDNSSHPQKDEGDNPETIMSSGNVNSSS

Protein Tat = molecular target: T4, Protein Tat (Human immunodeficiency virus type 1 group M subtype B (isolate HXB2)(HIV-1), UniProt P04608); type: functional;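 note: tat binding to TAR RNA read out by fluorescence polarization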
T4 sequence (P04608 whole entry): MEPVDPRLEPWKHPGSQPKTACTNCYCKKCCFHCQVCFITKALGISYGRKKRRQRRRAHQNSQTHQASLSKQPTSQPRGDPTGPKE

[11] = molecular target: Neurotensin receptor type 1 (Homo sapiens, UniProt P30989); type: functional;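 note: Image-based confirmatory dose-response assay measuring agonist activity at NTR1; NTR1-expressing U2OS osteosarcoma cells imaged for beta-arrestin GFP spot formation; agonist potency where compounds increase beta-arrestin recruitment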
Chain of Neurotensin receptor type 1 (P30989 whole entry): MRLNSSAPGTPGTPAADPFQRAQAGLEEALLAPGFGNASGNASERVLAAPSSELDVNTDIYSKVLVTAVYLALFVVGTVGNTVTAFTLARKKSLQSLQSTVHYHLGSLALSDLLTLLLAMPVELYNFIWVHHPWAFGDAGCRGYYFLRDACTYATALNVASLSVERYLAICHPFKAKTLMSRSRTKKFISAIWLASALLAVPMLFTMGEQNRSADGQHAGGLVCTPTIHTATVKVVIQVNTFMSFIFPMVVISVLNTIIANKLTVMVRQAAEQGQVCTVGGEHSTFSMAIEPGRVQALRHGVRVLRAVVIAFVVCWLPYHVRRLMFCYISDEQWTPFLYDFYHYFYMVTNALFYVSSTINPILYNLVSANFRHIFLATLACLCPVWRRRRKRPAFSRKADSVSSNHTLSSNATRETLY

T1 sequence (P41145 whole entry): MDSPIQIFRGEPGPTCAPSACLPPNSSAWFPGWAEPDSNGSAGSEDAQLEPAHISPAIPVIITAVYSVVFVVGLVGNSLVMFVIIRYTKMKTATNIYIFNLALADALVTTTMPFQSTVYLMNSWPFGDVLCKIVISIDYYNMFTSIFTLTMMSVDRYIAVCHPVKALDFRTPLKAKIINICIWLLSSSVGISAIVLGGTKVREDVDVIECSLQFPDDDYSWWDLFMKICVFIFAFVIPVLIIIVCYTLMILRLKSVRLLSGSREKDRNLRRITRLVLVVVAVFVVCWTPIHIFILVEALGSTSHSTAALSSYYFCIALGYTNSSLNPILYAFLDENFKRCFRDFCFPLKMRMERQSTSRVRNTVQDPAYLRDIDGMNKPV

## O=[N+]([O-])c1ccc(CSc2nnc(-c3ccccn3)n2Cc2cccs2)cc1
[1]
  EC50: 1.24 µM (active)
[2]
  EC50: > 64 µM (inactive)
[3]
  EC50: 0.956 µM (active)
Mu-type opioid receptor
  EC50: > 32 µM (inactive)

## NS(=O)(=O)c1ccc(N2N=C(c3ccc(Br)cc3)CC2c2ccc(F)cc2)cc1 (stereo unspecified)
[4]
  EC50: 2.62 µM (active)
[5]
  EC50: 3.33 µM (active)
[6]
  EC50: 15.4 µM (active)
[7]
  EC50: 0.877 µM (active)
[8]
  EC50: 14.1 µM (active)
[9]
  CC50: > 40 µM (active)
Streptococcus
  EC50: 5.44 µM (active)
Streptokinase A
  EC50: > 150 µM (not active)
Vero
  CC50: 17.1 µM (active)
[10]
  EC50: 2.2 µM (active)
Protein Tat
  IC50: > 100 µM (active)
[11]
  EC50: 25 µM (inactive)
